In patent US9499495B2, “Quinazolines and azaquinazolines as dual inhibitors of RAS/RAF/MEK/ERK and PI3K/AKT/PTEN/mTOR pathways” (Asana Biosciences, LLC, priority 2013, dated 2016) one finds IC50 data, which are given here for 8 compounds.

One assay has as its system pERK in RKO cells. The assay can be described thus: In Cell Western (ICW) assay, pERK in RKO cells. The class given is cell-based. The settings on record: Homo sapiens, 3 h treatment. The essentials:
(§1)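 RKO or A375 cells were exposed to compounds for 3 h at 37 °C, then fixed and stained in-cell with antibodies to pERK1/2 (T202/Y204), pS6RP or pAKT T308, followed by a Eu-labelled secondary. Time-resolved fluorescence (340/615 nm) was normalized to Hoechst, and IC50 values were fitted sigmoidally against DMSO as 0% inhibition.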

Another assay concerns A375 cells. The assay can be described thus: XTT assay for cell viability, A375 cells. The class given is cell-based. The following applies: Homo sapiens, A-375, 72 h. The essentials:
(§2)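 RKO and A375 cells seeded at 1000-2000/well overnight, then exposed to compound for 72 h at 37° C., 5% CO2. XTT (1 mg/ml)/PMS (25 μM) added for 2-3 h; absorbance at 450 nm. Growth relative to DMSO control (100%); GI50 from sigmoidal dose-response fit.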

Another assay relates to RKO cells. The assay can be described thus: XTT assay for cell viability, RKO cells. The class given is cell-based. The following applies: Homo sapiens, 72 h. Summed up:
as §2

The test system of another assay is pAKT (T308) in RKO cells. The assay can be described thus: In Cell Western (ICW) assay, pAKT-T308 in RKO cells. The assay is classed as cell-based. The following applies: Homo sapiens, 3 h treatment. The method, then:
Cell lines A375, A2058 and RKO obtained from the ATCC as provided above, were grown, and after attaining ˜80% confluency were trypsinized, centrifuged and resuspended in fresh media. The cells were seeded at the specified density (20,000 to 50,000) in a 96-well format black-well clear bottom plate (Corning) and incubated overnight at 37° C. in a 5% CO2 incubator. The next day, compound dilutions of test compounds were prepared in 100% DMSO followed by dilutions in respective media. Treatment of test compounds was performed for 3 h at 37° C. in 5% CO2 incubator. Following 3 h drug treatment, the conditional media was discarded and the cells were washed once with cPBS (PBS containing 0.1% magnesium chloride hexahydrate and 0.1% anhydrous calcium chloride) and fixed with 4% paraformaldehyde in cPBS for 1 h at rt. After fixing, the cells were given three washes using cPBST (cPBS containing 0.1% Triton™ X-100 reagent) and then blocked using blocking solution (5% skimmed milk powder or 5% BSA prepared in cPBST) for 2 h at rt with shaking at 300 rpm. The cells were again washed thrice with cPBST and incubated with primary antibody phospho-p44/42 MAPK(Erk1/2)(Thr202/204) antibody (Cell Signaling, Catalog # 9101L), phospho S6 ribosomal protein (Cell Signaling, Catalog #4858L), phospho AKT (Thr 308) (Cell Signaling, Catalog #9275) or phospho AKT (Ser 473) (Cell Signaling, Catalog #4060L) in specified dilutions (1:500-1:2500), prepared in respective blocking solutions, in a racker overnight at 4° C. The next day, the cells were washed with 1× Delfia® wash buffer (4×1 wash) and incubated with secondary antibody (Delfia®-Eu-N1 labeled anti-rabbit antibody; PerkinElmer, Catalog #AD0105; dilutions: 1:2000 to 1:6000 in Delfia® assay buffer (PerkinElmer, Catalog #1244-111)) for 2 h at rt in the dark at 300 rpm. The cells were then given four washes with 1× Delfia® wash buffer and incubated with Wallac Delfia® Enhancement solution (100 μL; PerkinElmer, Catalog #1244-105) for 20 min at rt in the dark at 300 rpm. The fluorescence emission was then read at 615 nm with an excitation wavelength of 340 nm using a Victor V5 Fluorometer (Perkin Elmer, US). The cells were then washed once with 1×cPBS and incubated with 100 μL of 0.5 mg/mL of Hoechst 33258 dye prepared in cPBS and read at 460 nm with 355 nm excitation, thereby evaluating the correction factor.
The % inhibition for the test compounds of formula (I) (new chemical entities (NCEs)) was calculated keeping DMSO control as 0% and the IC50 values were determined using sigmoidal dose response curve fit in GraphPad Prism® v5 software.

The target of the next assay is T1, mTOR kinase (Homo sapiens, UniProt P42345).
T1 construct: purchased Millipore, US
T1 sequence (P42345 1362-2549 limits assumed): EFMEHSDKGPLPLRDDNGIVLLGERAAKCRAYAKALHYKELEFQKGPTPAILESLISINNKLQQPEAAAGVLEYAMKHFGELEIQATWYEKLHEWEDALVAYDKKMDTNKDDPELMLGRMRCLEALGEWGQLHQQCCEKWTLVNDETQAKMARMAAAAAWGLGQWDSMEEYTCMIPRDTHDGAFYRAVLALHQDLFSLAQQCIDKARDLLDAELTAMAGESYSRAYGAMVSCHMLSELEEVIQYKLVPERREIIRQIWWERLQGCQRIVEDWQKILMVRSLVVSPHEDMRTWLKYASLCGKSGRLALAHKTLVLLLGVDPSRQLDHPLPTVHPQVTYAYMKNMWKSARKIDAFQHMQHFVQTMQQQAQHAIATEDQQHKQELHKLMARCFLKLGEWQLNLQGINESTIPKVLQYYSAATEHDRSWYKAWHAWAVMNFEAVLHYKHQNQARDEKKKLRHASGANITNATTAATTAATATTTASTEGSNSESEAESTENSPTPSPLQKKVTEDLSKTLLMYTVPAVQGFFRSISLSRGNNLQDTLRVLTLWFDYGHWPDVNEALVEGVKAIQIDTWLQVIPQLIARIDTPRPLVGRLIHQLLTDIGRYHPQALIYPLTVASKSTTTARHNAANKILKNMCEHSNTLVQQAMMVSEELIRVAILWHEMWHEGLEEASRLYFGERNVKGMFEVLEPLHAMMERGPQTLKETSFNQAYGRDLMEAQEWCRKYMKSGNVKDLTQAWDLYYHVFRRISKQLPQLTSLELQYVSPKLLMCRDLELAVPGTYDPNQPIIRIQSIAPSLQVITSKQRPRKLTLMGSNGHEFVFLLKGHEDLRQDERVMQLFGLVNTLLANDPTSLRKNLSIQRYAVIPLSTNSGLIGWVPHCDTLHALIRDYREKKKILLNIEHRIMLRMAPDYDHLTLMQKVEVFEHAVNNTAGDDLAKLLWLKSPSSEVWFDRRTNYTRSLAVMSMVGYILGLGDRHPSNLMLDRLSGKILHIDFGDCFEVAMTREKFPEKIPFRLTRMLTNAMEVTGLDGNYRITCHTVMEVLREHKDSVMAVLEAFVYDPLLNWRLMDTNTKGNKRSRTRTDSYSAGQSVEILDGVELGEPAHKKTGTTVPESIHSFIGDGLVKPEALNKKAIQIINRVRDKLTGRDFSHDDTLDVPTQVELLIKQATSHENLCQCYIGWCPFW
The assay can be described thus: mTOR kinase TR-FRET assay. The assay is classed as biochemical. The essentials: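 TR-FRET with ULight-p70 S6K (Thr 389) peptide (50 nM) and 20 μM ATP in 50 mM HEPES pH 7.5, 1 mM EGTA, 3 mM MnCl2; compound pre-incubated with enzyme before substrate addition, reaction at rt, EDTA-stopped. Eu anti-phospho antibody read 665/615 nm; IC50 from sigmoidal dose-response fit.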

Another assay concerns pS6RP in RKO cells. Nature of the assay: In Cell Western (ICW) assay, pS6RP in RKO cells. The assay is classed as cell-based. The following applies: Homo sapiens, 3 h treatment. Summed up:
as §1

Consider `Nc1ccc(-c2nc(N3CCOCC3)c3nc(-c4cccc(NS(=O)(=O)c5cc(F)ccc5F)c4F)ccc3n2)cn1` [Example 92, N-(3-(2-(6-aminopyridin-3-yl)-4-morpholinopyrido[3,2-d]pyrimidin-6-yl)-2-fluorophenyl)-2,5-difluorobenzenesulfonamide], for which the IC50 is 100 to 1000 nM in the assay on pERK in RKO cells; 1 to 100 nM in the assay on A375 cells; 1000 to 10000 nM in the assay with RKO cells; 1000 to 10000 nM in the assay with pAKT (T308) in RKO cells; 100 to 1000 nM against mTOR kinase.

As to `Nc1ncc(-c2nc(N3CCOCC3)c3nc(-c4cccc(NS(=O)(=O)CCCF)c4F)ccc3n2)cn1` [Example 87, N-(3-(2-(2-aminopyrimidin-5-yl)-4-morpholinopyrido[3,2-d]pyrimidin-6-yl)-2-fluorophenyl)-3-fluoropropane-1-sulfonamide], the IC50 in the assay with A375 cells is 100 to 1000 nM; in the assay with pS6RP in RKO cells it was 100 to 1000 nM; in the assay with RKO cells, 100 to 1000 nM; with pAKT (T308) in RKO cells it was 100 to 1000 nM; against mTOR kinase it was 1 to 100 nM.

On to `C[C@H]1COCCN1c1nc(-c2cnc(N)cc2C(F)(F)F)nc2ccc(-c3cccc(NS(=O)(=O)CCCF)c3F)nc12` [Example 108, (S)-N-(3-(2-(6-amino-4-(trifluoromethyl)pyrldin-3-yl)-4-(3-methylmorpholino)pyrido[3,2-d]pyrimidin-6-yl)-2-fluorophenyl)-3-fluoropropane-1-sulfonamide], for which the IC50 lay in the range of 100 to 1000 nM in the assay on pERK in RKO cells; 100 to 1000 nM in the assay with A375 cells; 100 to 1000 nM in the assay with RKO cells; 1000 to 10000 nM in the assay on pAKT (T308) in RKO cells; 100 to 1000 nM on mTOR kinase.

As to `CNc1ccc(-c2nc(N3CCOCC3)c3nc(-c4cccc(NS(=O)(=O)CCCF)c4F)ccc3n2)cn1` [Example 113, 3-fluoro-N-(2-fluoro-3-(2-(6-(methylamino)pyridin-3-yl)-4-morpholinopyrido[3,2-d]pyrimidin-6-yl)phenyl)propane-1-sulfonamide], the half-inhibitory concentration (IC50) in the assay with A375 cells fell in the range of 100 to 1000 nM; in the assay with RKO cells, 100 to 1000 nM; in the assay with pAKT (T308) in RKO cells, 1000 to 10000 nM; against mTOR kinase it was 1 to 100 nM.

As for `Nc1ncc(-c2nc(N3CCOCC3)c3nc(-c4cccc(NS(=O)(=O)c5cc(F)ccc5F)c4F)ccc3n2)cn1` [Example 93, N-(3-(2-(2-aminopyrimidin 5-yl)-4-morpholinopyrido[3,2-d]pyrimidin-6-yl)-2-fluorophenyl)-2,5-difluorobenzenesulfonamide], the IC50 with A375 cells is 100 to 1000 nM; in the assay on RKO cells it was 100 to 1000 nM; in the assay with pAKT (T308) in RKO cells it was 1000 to 10000 nM; on mTOR kinase, 100 to 1000 nM.

Consider `COc1cc(-c2c(F)ccc(NS(=O)(=O)CCCF)c2F)cc2c(N3CCOCC3)nc(-c3ccc(N)nc3)nc12` [Example 79, N-(3-(2-(6-aminopyridin-3-yl)-8-methoxy-4-morpholinoquinazolin-6-yl)-2,4-difluorophenyl)-3-fluoropropane-1-sulfonamide], for which the half-maximal inhibitory concentration (IC50) was in the range of 1 to 100 nM in the assay with A375 cells; 100 to 1000 nM in the assay on pS6RP in RKO cells; 100 to 1000 nM in the assay on RKO cells; 100 to 1000 nM in the assay with pAKT (T308) in RKO cells; 1 to 100 nM on mTOR kinase.

With `C[C@@H]1COCCN1c1nc(-c2ccc(N)nc2)nc2ccc(-c3cccc(NS(=O)(=O)CCCF)c3F)nc12` [Example 96, (R)-N-(3-(2-(6-aminopyridin-3-yl)-4-(3-methylmorpholino)pyrido[3,2-d]pyrimidin-6-yl)-2-fluorophenyl)-3-fluoropropane-1-sulfonamide], the half-maximal inhibitory concentration (IC50) in the assay with pERK in RKO cells lay within 1 to 100 nM; in the assay on A375 cells, 1 to 100 nM; in the assay on pS6RP in RKO cells it was 100 to 1000 nM; in the assay on RKO cells it was 100 to 1000 nM; at mTOR kinase it was 100 to 1000 nM.

In the case of `COc1cc(-c2cccc(NS(=O)(=O)CCCF)c2F)cc2c(N3CCOC[C@H]3C)nc(-c3cnc(N)c(F)c3)nc12` [Example 134, (R)-N-(3-(2-(6-amino-5-fluoropyridin-3-yl)-8-methoxy-4-(3-methylmorpholino)quinazolin-6-yl)-2-fluorophenyl)-3-fluoropropane-1-sulfonamide], the IC50 in the assay on pERK in RKO cells lay in the range of 1 to 100 nM; in the assay on A375 cells, 1 to 100 nM; in the assay on pS6RP in RKO cells, 1 to 100 nM; in the assay with RKO cells, 100 to 1000 nM; against mTOR kinase, 1 to 100 nM.
